# Biological target: T1, ANXA8 (Homo sapiens, UniProt P13928)
# T1 construct: commercial recombinant protein (MCE); His tag implied by RED-tris-NTA labelling
# T1 sequence (P13928 1-327): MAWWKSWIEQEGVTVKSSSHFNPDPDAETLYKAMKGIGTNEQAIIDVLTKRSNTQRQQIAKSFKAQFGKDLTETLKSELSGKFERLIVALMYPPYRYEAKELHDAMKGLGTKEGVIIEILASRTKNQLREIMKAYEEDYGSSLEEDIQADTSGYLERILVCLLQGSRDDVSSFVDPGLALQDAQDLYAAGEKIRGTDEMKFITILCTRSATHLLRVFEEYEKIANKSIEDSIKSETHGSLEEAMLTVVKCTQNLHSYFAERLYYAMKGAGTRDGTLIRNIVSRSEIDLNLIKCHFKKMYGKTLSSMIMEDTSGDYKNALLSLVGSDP
# Experiment: microscale thermophoresis (Monolith NT.[…]), one-site fit
# Assay type: binding
compound,measurement,value
CCCCNc1ncc2c(-c3ccc(CN4CCN(C)CC4)cc3)cn([C@H]3CC[C@H](O)CC3)c2n1 [UNC2025],Kd,83.5 nM

# Source: article PMC12377485, “Targeting the ANXA8–SP1–PPA1 Axis to Modulate TCA Cycle and Matrix Deposition in Diffuse-Type Gastric Cancer” (Research, 2025)
